System: 435261-313-R-J1-PDC tumor spheroid viability
Experiment: Anticancer human tumor 435261-313-R-J1-PDC patient-derived colon adenocarcinoma cell line growth inhibition [PI3K]
Conditions: spheroids with HUVEC and MSC; for IC50: curve of first compound; for viability, T/C: stronger effect = lower value
Procedure, shortened: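 Multi-cell spheroids combine tumor cells with HUVEC and human MSCs, treated with targeted agents alone or with inavolisib, alpelisib, duvelisib or copanlisib. Concentrations fall in half-log steps from at or near clinical Cmax, or from 10 microM where Cmax is unknown; viability read-out.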

[1] = second compound 0.00316 µM, first compound 0.0316 µM
[2] = second compound 0.00316 µM, first compound 0.1 µM
[3] = second compound 0.00316 µM, first compound 0.316 µM
[4] = second compound 0.00316 µM, first compound 1 µM
[5] = second compound 0.00316 µM, first compound 3.16 µM
[6] = second compound 0.00316 µM, first compound 10 µM
[7] = second compound 0.01 µM, first compound 0.0316 µM
[8] = second compound 0.01 µM, first compound 0.1 µM
[9] = second compound 0.01 µM, first compound 0.316 µM
[10] = second compound 0.01 µM, first compound 1 µM
[11] = second compound 0.01 µM, first compound 3.16 µM
[12] = second compound 0.01 µM, first compound 10 µM
[13] = second compound 0.0316 µM, first compound 0.0316 µM
[14] = second compound 0.0316 µM, first compound 0.1 µM
[15] = second compound 0.0316 µM, first compound 0.316 µM
[16] = second compound 0.0316 µM, first compound 1 µM
[17] = second compound 0.0316 µM, first compound 3.16 µM
[18] = second compound 0.0316 µM, first compound 10 µM
[19] = second compound 0.1 µM, first compound 0.0316 µM
[20] = second compound 0.1 µM, first compound 0.1 µM
[21] = second compound 0.1 µM, first compound 0.316 µM
[22] = second compound 0.1 µM, first compound 1 µM
[23] = second compound 0.1 µM, first compound 3.16 µM
[24] = second compound 0.1 µM, first compound 10 µM
[25] = second compound 0.316 µM, first compound 0.0316 µM
[26] = second compound 0.316 µM, first compound 0.1 µM
[27] = second compound 0.316 µM, first compound 0.316 µM
[28] = second compound 0.316 µM, first compound 1 µM
[29] = second compound 0.316 µM, first compound 3.16 µM
[30] = second compound 0.316 µM, first compound 10 µM
[31] = second compound 1 µM, first compound 0.0316 µM
[32] = second compound 1 µM, first compound 0.1 µM
[33] = second compound 1 µM, first compound 0.316 µM
[34] = second compound 1 µM, first compound 1 µM
[35] = second compound 1 µM, first compound 3.16 µM
[36] = second compound 1 µM, first compound 10 µM
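Note: spheroids exposed to compounds for 7 days.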

## C=CC(=O)N1CCN(c2nc(=O)n(-c3c(C)ccnc3C(C)C)c3nc(-c4c(O)cccc4F)c(F)cc23)C(C)C1 (stereo unspecified) + COc1c(OCCCN2CCOCC2)ccc2c3n(c(=NC(=O)c4cnc(N)nc4)nc12)CCN3
Second compound 0.00316 µM
  IC50: > 10 µM
Second compound 0.01 µM
  IC50: < 0.0316 µM
Second compound 0.0316 µM
  IC50: < 0.0316 µM
Second compound 0.1 µM
  IC50: < 0.0316 µM
Second compound 0.316 µM
  IC50: < 0.0316 µM
Second compound 1 µM
  IC50: < 0.0316 µM
[1]
  viability, T/C: 86.8%
[2]
  viability, T/C: 78.2%
[3]
  viability, T/C: 99%
[4]
  viability, T/C: 63.5%
[5]
  viability, T/C: 101%
[6]
  viability, T/C: 97.9%
[7]
  viability, T/C: 45.5%
[8]
  viability, T/C: 56.6%
[9]
  viability, T/C: 47.7%
[10]
  viability, T/C: 64.7%
[11]
  viability, T/C: 60.2%
[12]
  viability, T/C: 85%
[13]
  viability, T/C: 25.5%
[14]
  viability, T/C: 36.7%
[15]
  viability, T/C: 29%
[16]
  viability, T/C: 30.6%
[17]
  viability, T/C: 26.3%
[18]
  viability, T/C: 30.6%
[19]
  viability, T/C: 15.9%
[20]
  viability, T/C: 16.5%
[21]
  viability, T/C: 17.5%
[22]
  viability, T/C: 18.7%
[23]
  viability, T/C: 15.4%
[24]
  viability, T/C: 16.1%
[25]
  viability, T/C: 8.2%
[26]
  viability, T/C: 8.82%
[27]
  viability, T/C: 7.92%
[28]
  viability, T/C: 8.17%
[29]
  viability, T/C: 6.9%
[30]
  viability, T/C: 5.27%
[31]
  viability, T/C: 4.55%
[32]
  viability, T/C: 3.78%
[33]
  viability, T/C: 3.56%
[34]
  viability, T/C: 3.98%
[35]
  viability, T/C: 3.29%
[36]
  viability, T/C: 2.04%

## CC1(C)CCC(Nc2ncc(C(F)(F)F)c(-c3c[nH]c4c(P(C)(C)=O)c(C#N)ccc34)n2)CN1 (stereo unspecified) + COc1c(OCCCN2CCOCC2)ccc2c3n(c(=NC(=O)c4cnc(N)nc4)nc12)CCN3
Second compound 0.00316 µM
  IC50: 3.17 µM
Second compound 0.01 µM
  IC50: 0.0316 µM
Second compound 0.0316 µM
  IC50: < 0.0316 µM
Second compound 0.1 µM
  IC50: < 0.0316 µM
Second compound 0.316 µM
  IC50: < 0.0316 µM
Second compound 1 µM
  IC50: < 0.0316 µM
[1]
  viability, T/C: 56.2%
[2]
  viability, T/C: 58.8%
[3]
  viability, T/C: 54.5%
[4]
  viability, T/C: 57.2%
[5]
  viability, T/C: 50.1%
[6]
  viability, T/C: 0.44%
[7]
  viability, T/C: 42.3%
[8]
  viability, T/C: 43.9%
[9]
  viability, T/C: 49.2%
[10]
  viability, T/C: 47.7%
[11]
  viability, T/C: 58.8%
[12]
  viability, T/C: 0.48%
[13]
  viability, T/C: 31.6%
[14]
  viability, T/C: 32.6%
[15]
  viability, T/C: 33.7%
[16]
  viability, T/C: 30.9%
[17]
  viability, T/C: 21.5%
[18]
  viability, T/C: 0.35%
[19]
  viability, T/C: 17.8%
[20]
  viability, T/C: 16.8%
[21]
  viability, T/C: 15.5%
[22]
  viability, T/C: 18.6%
[23]
  viability, T/C: 7.14%
[24]
  viability, T/C: 0.28%
[25]
  viability, T/C: 7.08%
[26]
  viability, T/C: 6.11%
[27]
  viability, T/C: 5.71%
[28]
  viability, T/C: 5.56%
[29]
  viability, T/C: 2.4%
[30]
  viability, T/C: 0.23%
[31]
  viability, T/C: 3.57%
[32]
  viability, T/C: 2.68%
[33]
  viability, T/C: 3.18%
[34]
  viability, T/C: 2.83%
[35]
  viability, T/C: 1.6%
[36]
  viability, T/C: 0.23%

## CNC(=O)c1ccc(N2C(=S)N(c3ccc(C#N)c(C(F)(F)F)c3)C(=O)C2(C)C)cc1F + Cc1nc(NC(=O)N2CCCC2C(N)=O)sc1-c1ccnc(C(C)(C)C(F)(F)F)c1
Second compound 0.0316 µM
  IC50: > 10 µM
Second compound 0.1 µM
  IC50: > 10 µM
Second compound 0.316 µM
  IC50: < 0.0316 µM
Second compound 1 µM
  IC50: < 0.0316 µM
Second compound 3.16 µM
  IC50: < 0.0316 µM
Second compound 10 µM
  IC50: < 0.0316 µM
[13]
  viability, T/C: 81.8%
[14]
  viability, T/C: 78.2%
[15]
  viability, T/C: 103%
[16]
  viability, T/C: 75%
[17]
  viability, T/C: 93.5%
[18]
  viability, T/C: 84.2%
[19]
  viability, T/C: 70.8%
[20]
  viability, T/C: 52.1%
[21]
  viability, T/C: 71.5%
[22]
  viability, T/C: 61.4%
[23]
  viability, T/C: 83.7%
[24]
  viability, T/C: 77.1%
[25]
  viability, T/C: 27.3%
[26]
  viability, T/C: 59.3%
[27]
  viability, T/C: 46.2%
[28]
  viability, T/C: 61.7%
[29]
  viability, T/C: 75.8%
[30]
  viability, T/C: 45.7%
[31]
  viability, T/C: 26.3%
[32]
  viability, T/C: 30.4%
[33]
  viability, T/C: 24.8%
[34]
  viability, T/C: 37.4%
[35]
  viability, T/C: 23.9%
[36]
  viability, T/C: 25.1%
Second compound 3.16 µM, first compound 0.0316 µM
  viability, T/C: 18.9%
Second compound 3.16 µM, first compound 0.1 µM
  viability, T/C: 17.4%
Second compound 3.16 µM, first compound 0.316 µM
  viability, T/C: 12.7%
Second compound 3.16 µM, first compound 1 µM
  viability, T/C: 17.8%
Second compound 3.16 µM, first compound 3.16 µM
  viability, T/C: 14%
Second compound 3.16 µM, first compound 10 µM
  viability, T/C: 9.85%
Second compound 10 µM, first compound 0.0316 µM
  viability, T/C: 9.39%
Second compound 10 µM, first compound 0.1 µM
  viability, T/C: 8.74%
Second compound 10 µM, first compound 0.316 µM
  viability, T/C: 8.22%
Second compound 10 µM, first compound 1 µM
  viability, T/C: 8.91%
Second compound 10 µM, first compound 3.16 µM
  viability, T/C: 8.18%
Second compound 10 µM, first compound 10 µM
  viability, T/C: 5.56%

Source: PubChem BioAssay AID1963976 (Molecular Pharmacology Branch, DTP, NCI, 2024)
